Assay [1] has as its system DLD1 BRCA2 (−/−) cells. Nature of the assay: 7-day cell viability assay (CellTiter-Glo), DLD1 BRCA2 (−/−). It is filed as cell-based, human. The following applies: 7-day CellTiter-Glo, n=2, read-out: Viability IC50 (uM) DLD1 BRCA2 null. A digest of the protocol: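 7-day growth assay in DLD1 cells with or without BRCA2; seeding densities chosen to keep log-linear growth. Compound: 10 uM top, 3-fold, 9 points. Endpoint: CTG ATP luminescence at RT.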
For orientation: Cellular ATP, detected with luciferase, serves as a proxy for viable cell number.

Assay [2] concerns DLD1 WT cells. Nature of the assay: 7-day cell viability assay (CellTiter-Glo), DLD1 parental (WT). It is filed as cell-based, human. As to conditions: 7-day CellTiter-Glo, n=2.

Like-named read-outs stand apart in the source and are kept apart here.

As a reminder, the IC50 is the concentration that inhibits the measured activity by half. For `COc1cnc(Cl)cc1-c1cc(C)ncc1C(=O)Nc1nc2c(s1)CN(C(=O)c1c(C)cc(C(F)(F)F)nc1OC)C2` [Example 1019, 2′-chloro-5′-methoxy-N-(5-(2-methoxy-4-methyl-6-(trifluoromethyl)nicotinoyl)-5,6-dihydro-4H-pyrrolo[3,4-d]thiazol-2-yl)-6-methyl-[4,4′-bipyridine]-3-carboxamide], the half-inhibitory concentration (IC50) in assay [1] (Homo sapiens, DLD-1, 168 h) is 0.001 to 0.1 µM; in assay [2] (Homo sapiens, DLD-1, 168 h), not below 10 µM.

For `COc1cnc(Cl)cc1-c1cc(C)ncc1C(=O)Nc1nc2c(s1)CN(Cc1ccc(C(F)F)cc1F)C2` [Example 964, 2′-chloro-N-(5-(4-(difluoromethyl)-2-fluorobenzyl)-5,6-dihydro-4H-pyrrolo[3,4-d]thiazol-2-yl)-5′-methoxy-6-methyl-[4,4′-bipyridine]-3-carboxamide], the IC50 was 0.001 to 0.1 µM in assay [1] (Homo sapiens, DLD-1, 168 h) and not below 10 µM in assay [2] (Homo sapiens, DLD-1, 168 h).

For the molecule `COc1ncc(Cl)cc1-c1cc(C)ncc1C(=O)Nc1nc2c(s1)CN(C(=O)c1ccc(C(F)F)cn1)C2` [Example 446, 5-Chloro-N-(5-(5-(difluoromethyl)picolinoyl)-5,6-dihydro-4H-pyrrolo[3,4-d]thiazol-2-yl)-2-methoxy-6′-methyl-[3,4′-bipyridine]-3′-carboxamide], the IC50 was in the range of 0.001 to 0.1 µM in assay [1] (Homo sapiens, DLD-1, 168 h) and 2 to 5 µM in assay [2] (Homo sapiens, DLD-1, 168 h).

For `COc1cnc(Cl)cc1-c1cc(C)ncc1C(=O)Nc1nc2c(s1)CN(C(=O)c1cc(Cl)cnc1C)C2`, the IC50 was 0.001 to 0.1 µM in assay [1] (Homo sapiens, DLD-1, 168 h) and not below 10 µM in assay [2] (Homo sapiens, DLD-1, 168 h).

In the case of `COc1cnc(Cl)cc1-c1cc(C)ncc1C(=O)Nc1nc2c(s1)CN(C(=O)c1nc(C)c(C(F)F)c(C)c1Cl)C2` [Example 1020, 2′-chloro-N-(5-(3-chloro-5-(difluoromethyl)-4,6-dimethylpicolinoyl)-5,6-dihydro-4H-pyrrolo[3,4-d]thiazol-2-yl)-5′-methoxy-6-methyl-[4,4′-bipyridine]-3-carboxamide], the IC50 in assay [1] (Homo sapiens, DLD-1, 168 h) is 0.001 to 0.1 µM; in assay [2] (Homo sapiens, DLD-1, 168 h), not below 10 µM.

As for `COc1cnc(Cl)cc1-c1cc(C)ncc1C(=O)Nc1nc2c(s1)CN(C(=O)c1ccc(OC(F)(F)F)c(C)n1)C2` [Example 995, 2′-chloro-5′-methoxy-6-methyl-N-(5-(6-methyl-5-(trifluoromethoxy)picolinoyl)-5,6-dihydro-4H-pyrrolo[3,4-d]thiazol-2-yl)-[4,4′-bipyridine]-3-carboxamide], the IC50 in assay [1] (Homo sapiens, DLD-1, 168 h) is 0.001 to 0.1 µM; in assay [2] (Homo sapiens, DLD-1, 168 h) it was not below 10 µM.

With `COc1cnc(Cl)cc1-c1cc(C)ncc1C(=O)Nc1nc2c(s1)CN(C(=O)c1nc(C)cc(C(F)(F)F)c1C)C2` [Example 999, 2′-chloro-N-(5-(3,6-dimethyl-4-(trifluoromethyl)picolinoyl)-5,6-dihydro-4H-pyrrolo[3,4-d]thiazol-2-yl)-5′-methoxy-6-methyl-[4,4′-bipyridine]-3-carboxamide], the IC50 in assay [1] (Homo sapiens, DLD-1, 168 h) was 0.001 to 0.1 µM; in assay [2] (Homo sapiens, DLD-1, 168 h), not below 10 µM.

For `COc1cnc(Cl)cc1-c1cc(C)ncc1C(=O)Nc1nc2c(s1)CN(C(=O)c1nc(Cl)c(C(F)F)cc1C)C2` [Example 940, 2′-chloro-N-(5-(6-chloro-5-(difluoromethyl)-3-methylpicolinoyl)-5,6-dihydro-4H-pyrrolo[3,4-d]thiazol-2-yl)-5′-methoxy-6-methyl-[4,4′-bipyridine]-3-carboxamide], the half-maximal inhibitory concentration (IC50) was 0.001 to 0.1 µM in assay [1] (Homo sapiens, DLD-1, 168 h) and not below 10 µM in assay [2] (Homo sapiens, DLD-1, 168 h).

`COc1ncc(Cl)cc1-c1cc(C)ncc1C(=O)Nc1nc2c(s1)CN(C(=O)c1nccc(C(F)(F)F)c1OC)C2` [Example 1034, 5-chloro-2-methoxy-N-(5-(3-methoxy-4-(trifluoromethyl)picolinoyl)-5,6-dihydro-4H-pyrrolo[3,4-d]thiazol-2-yl)-6′-methyl-[3,4′-bipyridine]-3′-carboxamide]: the IC50 in assay [1] (Homo sapiens, DLD-1, 168 h) is 0.001 to 0.1 µM; in assay [2] (Homo sapiens, DLD-1, 168 h), not below 10 µM.

For `COc1ncc(Cl)cc1-c1cc(C)ncc1C(=O)Nc1nc2c(s1)CN(C(=O)c1ccc(C(F)(F)F)c(OC)n1)C2` [Example 1035, 5-chloro-2-methoxy-N-(5-(6-methoxy-5-(trifluoromethyl)picolinoyl)-5,6-dihydro-4H-pyrrolo[3,4-d]thiazol-2-yl)-6′-methyl-[3,4′-bipyridine]-3′-carboxamide], the IC50 in assay [1] (Homo sapiens, DLD-1, 168 h) is 0.001 to 0.1 µM; in assay [2] (Homo sapiens, DLD-1, 168 h), not below 10 µM.

On to “2′-chloro-N-(5-(4-cyano-1-methyl-1H-pyrazole-5-carbonyl)-5,6-dihydro-4H-pyrrolo[3,4-d]thiazol-2-yl)-5′-methoxy-6-methyl-[4,4′-bipyridine]-3-carboxamide [Example 581]”, for which the values for the IC50 in assay [1] and in assay [2] were 0.001 to 0.1 µM and not below 10 µM, respectively.

For `COc1nc(C(F)(F)F)ccc1C(=O)N1Cc2nc(NC(=O)c3cnc(C)cc3-c3cc(C(F)F)nnc3OC)sc2C1` [Example 1025, 4-(6-(difluoromethyl)-3-methoxypyridazin-4-yl)-N-(5-(2-methoxy-6-(trifluoromethyl)nicotinoyl)-5,6-dihydro-4H-pyrrolo[3,4-d]thiazol-2-yl)-6-methylnicotinamide], the IC50 in assay [1] (Homo sapiens, DLD-1, 168 h) is 0.001 to 0.1 µM; in assay [2] (Homo sapiens, DLD-1, 168 h), not below 10 µM.

As to `COc1cnc(Cl)cc1-c1cc(C)ncc1C(=O)Nc1nc2c(s1)CN(C(=O)c1nccc(C(F)(F)F)c1OC)C2` [Example 968, 2′-chloro-5′-methoxy-N-(5-(3-methoxy-4-(trifluoromethyl)picolinoyl)-5,6-dihydro-4H-pyrrolo[3,4-d]thiazol-2-yl)-6-methyl-[4,4′-bipyridine]-3-carboxamide], the IC50 in assay [1] (Homo sapiens, DLD-1, 168 h) was 0.001 to 0.1 µM; in assay [2] (Homo sapiens, DLD-1, 168 h), not below 10 µM.

With `COc1cnc(Cl)cc1-c1cc(C)ncc1C(=O)Nc1nc2c(s1)CN(C(=O)c1ccc(C(F)F)nc1C)C2` [Example 947, 2′-chloro-N-(5-(6-(difluoromethyl)-2-methylnicotinoyl)-5,6-dihydro-4H-pyrrolo[3,4-d]thiazol-2-yl)-5′-methoxy-6-methyl-[4,4′-bipyridine]-3-carboxamide], the IC50 in assay [1] (Homo sapiens, DLD-1, 168 h) is 0.001 to 0.1 µM; in assay [2] (Homo sapiens, DLD-1, 168 h) it was not below 10 µM.

In the case of `COc1cnc(Cl)cc1-c1cc(C)ncc1C(=O)Nc1nc2c(s1)CN(C(=O)c1ccc(OC(F)F)cc1)C2`, the IC50 in assay [1] (Homo sapiens, DLD-1, 168 h) is 0.001 to 0.1 µM; in assay [2] (Homo sapiens, DLD-1, 168 h), not below 10 µM.

On to `COc1cc2c(cnn2C)cc1-c1cc(C)ncc1C(=O)Nc1nc2c(s1)CN(C(=O)c1ccc(C(F)(F)F)nc1OC)C2` [Example 1010, 4-(6-methoxy-1-methyl-1H-indazol-S-yl)-N-(5-(2-methoxy-6-(trifluoromethyl)nicotinoyl)-5,6-dihydro-4H-pyrrolo[3,4-d]thiazol-2-yl)-6-methylnicotinamide], for which the IC50 in assay [1] (Homo sapiens, DLD-1, 168 h) is 0.001 to 0.1 µM; in assay [2] (Homo sapiens, DLD-1, 168 h), not below 10 µM.

On to `COc1cnc(Cl)cc1-c1cc(C)ncc1C(=O)Nc1nc2c(s1)CN(C(=O)c1nc(C(F)(F)F)ccc1Cl)C2` [Example 952, 2′-chloro-N-(5-(3-chloro-6-(trifluoromethyl)picolinoyl)-5,6-dihydro-4H-pyrrolo[3,4-d]thiazol-2-yl)-5′-methoxy-6-methyl-[4,4′-bipyridine]-3-carboxamide], for which the IC50 is 0.001 to 0.1 µM in assay [1] (Homo sapiens, DLD-1, 168 h) and not below 10 µM in assay [2] (Homo sapiens, DLD-1, 168 h).

As to `COc1ccc(C(F)F)c(C(=O)N2Cc3nc(NC(=O)c4cnc(C)cc4-c4cc(Cl)ncc4OC)sc3C2)n1`, the IC50 in assay [1] (Homo sapiens, DLD-1, 168 h) is 0.001 to 0.1 µM; in assay [2] (Homo sapiens, DLD-1, 168 h) it was not below 10 µM.

As for `COc1cc(C)c(C(=O)N2Cc3nc(NC(=O)c4cnc(C)cc4-c4cc(Cl)ncc4OC)sc3C2)c(Cl)n1` [Example 1030, 2′-chloro-N-(5-(2-chloro-6-methoxy-4-methylnicotinoyl)-5,6-dihydro-4H-pyrrolo[3,4-d]thiazol-2-yl)-5′-methoxy-6-methyl-[4,4′-bipyridine]-3-carboxamide], the IC50 was 0.001 to 0.1 µM in assay [1] (Homo sapiens, DLD-1, 168 h) and not below 10 µM in assay [2] (Homo sapiens, DLD-1, 168 h).

`COc1cccc(F)c1-c1cc(C)ncc1C(=O)Nc1nc2c(s1)CN(C(=O)c1ccc(C(F)(F)F)nc1OC)C2` [Example 1013, 4-(2-fluoro-6-methoxyphenyl)-N-(5-(2-methoxy-6-(trifluoromethyl)nicotinoyl)-5,6-dihydro-4H-pyrrolo[3,4-d]thiazol-2-yl)-6-methylnicotinamide]: the IC50 in assay [1] (Homo sapiens, DLD-1, 168 h) was 0.001 to 0.1 µM; in assay [2] (Homo sapiens, DLD-1, 168 h) it was not below 10 µM.

With `COc1cnc(Cl)cc1-c1cc(C)ncc1C(=O)Nc1nc2c(s1)CN(C(=O)c1nc(OC)c(Cl)cc1C)C2`, the IC50 was 0.001 to 0.1 µM in assay [1] (Homo sapiens, DLD-1, 168 h) and 5 to 10 µM in assay [2] (Homo sapiens, DLD-1, 168 h).

As to `COc1cnc(Cl)cc1-c1cc(C)ncc1C(=O)Nc1nc2c(s1)CN(C(=O)c1nc(C)c(OC(F)F)cc1C)C2` [Example 1027, 2′-chloro-N-(5-(5-(difluoromethoxy)-3,6-dimethylpicolinoyl)-5,6-dihydro-4H-pyrrolo[3,4-d]thiazol-2-yl)-5′-methoxy-6-methyl-[4,4′-bipyridine]-3-carboxamide], the IC50 is 0.001 to 0.1 µM in assay [1] (Homo sapiens, DLD-1, 168 h) and not below 10 µM in assay [2] (Homo sapiens, DLD-1, 168 h).

`COc1cnc(Cl)cc1-c1cc(C)ncc1C(=O)Nc1nc2c(s1)CN(C(=O)c1cc(C)c(C#N)cn1)C2` [Example 611]: the IC50 in assay [1] (Homo sapiens, DLD-1, 168 h) is 0.001 to 0.1 µM; in assay [2] (Homo sapiens, DLD-1, 168 h), not below 10 µM.

Regarding `COc1cnc(Cl)cc1-c1cc(C)ncc1C(=O)Nc1nc2c(s1)CN(C(=O)c1ncc(C(F)F)cc1F)C2`, the IC50 is 0.001 to 0.1 µM in assay [1] (Homo sapiens, DLD-1, 168 h) and not below 10 µM in assay [2] (Homo sapiens, DLD-1, 168 h).

Regarding `COc1cnc(Cl)cc1-c1cc(C)ncc1C(=O)Nc1nc2c(s1)CN(C(=O)c1ccc(OC(F)F)c(C)n1)C2` [Example 1008, 2′-chloro-N-(5-(5-(difluoromethoxy)-6-methylpicolinoyl)-5,6-dihydro-4H-pyrrolo[3,4-d]thiazol-2-yl)-5′-methoxy-6-methyl-[4,4′-bipyridine]-3-carboxamide], the half-inhibitory concentration (IC50) is 0.001 to 0.1 µM in assay [1] (Homo sapiens, DLD-1, 168 h) and not below 10 µM in assay [2] (Homo sapiens, DLD-1, 168 h).

In the case of “2′-chloro-N-(5-(5-chloro-2-methylisonicotinoyl)-5,6-dihydro-4H-pyrrolo[3,4-d]thiazol-2-yl)-5′-methoxy-6-methyl-[4,4′-bipyridine]-3-carboxamide [Example 519]”, the figures for the IC50 in assay [1] and in assay [2] were 0.001 to 0.1 µM and not below 10 µM, respectively.

The record behind these values is US20250230171A1 (MOMA Therapeutics, Inc., priority 2023, published 2025).
